# Source: a melting point compilation (Tetko et al.)
row,melting point [°C],SMILES
1,175,Nc1ccc(S(=O)c2ccc(N)cc2)cc1
2,130,CCNc1ccc2ccccc2c1N=Nc1ccc(N=Nc2ccccc2)cc1
3,35 to 36,CCOC(=O)c1cc(Cl)cc(Cl)c1
4,225 to 228,CC1(C)N=C(N)C(C)(C)N1O
5,92 to 94,O=C(c1ccccc1)c1cccc([N+](=O)[O-])c1
6,50.4,BrCCCCCCCCCCCCCCBr
7,192,COc1cc(C=CC(=O)O)ccc1OCc1ccccc1
8,168 to 170,CSc1nsc(SC)c1C(=O)Nc1ccc(Cl)cc1
9,52 to 54,CC(=O)c1ccc(Oc2ccccc2)cc1
10,9,CC/C=C/C(=O)O
11,158 to 160,Sc1nnc(-c2ccc(Cl)cc2Cl)n1Cc1ccco1
12,104 to 108,c1ccc2c(c1)OCCOCCOCCOCCOc1ccccc1OCCOCCOCCOCCO2
13,7,C=CCCCCCCCCC=O
14,148,CC(OC1C(N)C(O)OC(CO)C1O)C(=O)O (stereo not given)
15,124,CCC(C(=O)O)c1ccc(-c2ccccc2)cc1 (stereo not given)
16,81.5,Cc1ccc2ccccc2c1[N+](=O)[O-]
17,95,CC(=O)CCc1cc2c(cc1[N+](=O)[O-])CCC(C)N2 (stereo not given)
18,-80,CCCOCC(C)O (stereo not given)
19,218,O=[N+]([O-])c1ccc(-c2nnc3n2NCS3)cc1
20,115,Cc1cc(O)cc(C)c1Br
21,70,O=[N+]([O-])c1cc(Cl)ccc1Br
22,133 to 136,NS(=O)(=O)c1ccc(Sc2ccc(Cl)cc2)s1
23,35,CC(=O)c1ccc(C2CC2(Cl)Cl)cc1 (stereo not given)
24,60,O=[N+]([O-])c1cc(S(=O)(=O)Cl)ccc1Cl

row,melting point [°C],SMILES
1,31 to 33,CS(=O)(=O)CCO
2,49.5,COc1cccc2cccnc12
3,176 to 178,CC(=O)OC1C2=C(C(=O)C(OC(C)=O)C3(CC3C)C2=O)C2(C)CCC(C)=C(C)C2C1O (stereo not given)
4,189 to 190,O=C(O)c1ccc2occc2c1
5,87,COc1ccccc1CCC(=O)O
6,189 to 190,O=c1[nH]cc(C(F)(F)F)cc1[N+](=O)[O-]
7,94 to 96,C#CCn1ccc2cc(C(=O)OC)ccc21
8,60,NNc1ccccc1C(F)(F)F
9,46 to 50,COc1ccc(OCCBr)cc1
10,57,CN(C(=O)C(F)(F)C(F)(F)C(F)(F)C(F)(F)C(F)(F)C(F)(F)C(F)(F)C(F)(F)F)C1CCCCC1
11,69.5,Clc1ccccc1C=C1c2ccccc2-c2ccccc21
12,223,CC12CCC(=O)C=C1CCC1C2C(O)CC2(C)C1CCC2(O)C(=O)CO (stereo not given)
13,193 to 196,CC(=O)N1CCSC1C(=O)NN (stereo not given)
14,150 to 151,NC(=NO)c1ccc2ccccc2c1
15,142,CC(C)(C)c1ccc(-c2ccc(Br)cc2)cc1
16,111 to 113,Cc1nc(-c2ccccc2)sc1C=O
17,101,CC(C)(C)c1csc(N)n1
18,86 to 88,CC1(C)O[C@@H](CP(c2ccccc2)c2ccccc2)[C@@H](CP(c2ccccc2)c2ccccc2)O1
19,-70,NCC1CCCC(CN)C1 (stereo not given)
20,185,O=[N+]([O-])c1cc(C=NNc2ccccc2)ccc1C=NNc1ccccc1
21,186,COc1ccc(-c2ccc(S(=O)(=O)NCC(=O)O)cc2)cc1
22,136,CC(=O)c1c(C)c([N+](=O)[O-])c(C(C)(C)C)c([N+](=O)[O-])c1C
23,235,N#CC(=C1CCCC1)c1nc2ccccc2s1
24,230,Cc1cc(C(=O)O)c(C)n1-c1ccc(Cl)cc1

row,melting point [°C],SMILES
1,57 to 64,O=C(C1CCCNC1)N1CCCC1 (stereo not given)
2,193 to 203,Nc1ccc(SCC(=O)O)cc1
3,105 to 106,O=C1OC(=O)C2CC(c3ccccc3)CCC12 (stereo not given)
4,157 to 158,Nc1ccccc1C(=NO)c1ccccc1
5,-89.4,CC(C)C1CCCCC1
6,158,OCCN(CCO)c1nc(N2CCCCC2)c2nc(N(CCO)CCO)ncc2n1
7,156,Cc1ccc2c(c1C)CCC1C2CCC2CCCCC21C (stereo not given)
8,130,CC(=O)c1ccc2c(c1)Cc1ccccc1-2
9,264,Cn1c(=O)c(C2=NNC(=O)C2=NNc2ccccc2Cl)c(O)c2ccccc21
10,22,CCCCCCCCCCC(C)C(=O)O (stereo not given)
11,77,Nc1cccnc1Br
12,138,COc1cc(C(=O)NS(=O)(=O)c2ccccc2C)ccc1Cc1cn(C)c2ccc(NC(=O)OC3CCCC3)cc12
13,310,CC(=O)c1c(O)nc2cc3nc(O)c(C(C)=O)c(C)c3cc2c1C
14,156 to 158,Cc1cc(S(=O)(=O)Cc2ccc(N)cc2)c(C)cc1Cl
15,78 to 79,ClCc1csc(-c2ccc(Cl)cc2)n1
16,210 to 212,CCn1c(C)nc([N+](=O)[O-])c1I
17,213 to 214,CSc1nc(-c2ccc(C)cc2)nc(N)c1C#N
18,150 to 153,CCSc1sc(C#N)c2c1C(=O)CC(C)(C)C2
19,101 to 105,O=C1NCC(CCl)O1 (stereo not given)
20,160,O=C(Cn1c(=O)sc2ccc(Cl)cc21)N1CCN(CCO)CC1
21,179,COc1ccccc1C1(C)CCc2oc3ccc(C)cc3c2-c2oc(C)cc21 (stereo not given)
22,-9,CC(C)CCOC(=O)C(=O)OCCC(C)C
23,-108,CCCCC1CCCC1
24,207,Cc1c(C)c2c(c3c1C(=O)C3)CC2=O

row,melting point [°C],SMILES
1,162 to 166,CC(C)(C)OC(=O)N1CCC(c2nc(C(=O)O)cs2)CC1
2,89 to 91,CC(=O)CS(=O)(=O)c1ccc(Cl)cc1
3,143,O=C(O)c1ccc(N2C(=O)C3ON=C(C(=O)c4ccc(Cl)cc4)C3C2=O)cc1 (stereo not given)
4,50,COc1cccc(C)c1[N+](=O)[O-]
5,191 to 192,"Cc1ccc(NC(=O)C(O)C(O)C(=O)O)cc1 (single isomer, unassigned; (-))"
6,290,O=C(O)CCc1ccc(C(=O)O)cc1
7,60 to 65,NCCCNc1ncc(C(F)(F)F)cc1Cl
8,34,CCCCCCCCCCCC(=O)CC
9,-3,Cc1c(O)cc2c(c1C)OC(C)(CCCC(C)CCCC(C)CCCC(C)C)CC2 (stereo not given)
10,4.5,Cc1ccc(C)c2ncccc12
11,255,CC(C)C(C)C(O)C(O)C(C)C1CCC2C3COC(=O)C4CC(O)C(O)CC4(C)C3CCC12C (stereo not given)
12,236 to 237,CC(=O)Nc1ccc(-c2ccc(/N=N/c3ccccc3)cc2)cc1
13,352,O=C(Nc1ccc(C=Cc2ccc(NC(=O)c3ccccc3)cc2)cc1)c1ccccc1
14,232 to 234,CS(=O)CCC(N)C(=O)O (racemic)
15,205,NC(CCC(=O)O)C(=O)O (stereo not given)
16,58 to 58.5,CC1=C(c2ccccc2)c2ccccc2C1
17,37,c1ccc(SCSc2ccccc2)cc1
18,8.5,O=c1cccco1
19,-37.2,CCCCCCC(C)CCCCCC
20,250 to 255,O=C(CSc1nc(=O)[nH]c2c1CCCC2)c1ccccc1
21,166,O=[N+]([O-])c1ccc(C=NNc2ccccc2)cc1
22,148,O=C(O)COc1c(Cl)ccc(Cl)c1Cl
23,300,O=C(O)c1ccc(-c2ccncc2)cc1
24,179 to 182,COc1ccc(C=CNNc2nc(C)cc(C)n2)cc1

row,melting point [°C],SMILES
1,112,Cc1ccncc1CNC(=O)c1ccccc1
2,> 300,Cc1cccc2c1[nH]c(=O)c1cc(NC(=O)c3ccccc3)c(=O)oc12
3,88,Clc1ccc(N=Nc2ccccc2)cc1
4,176 to 180,NC(=O)Cc1ccc(O)cc1
5,60 to 61,CCOc1ccc(N=C=S)cc1
6,187 to 188,O=C(O)c1ccc(-c2ccco2)s1
7,138,CC1=NN(c2ccc(C)cc2)C(=O)C1
8,-12,CCCCNc1ccccc1
9,127 to 132,COc1ccc(C2(C(=O)O)CC2)cc1
10,134 to 143,COc1cc2c(cc1OC)C(C(=O)O)C2 (stereo not given)
11,64 to 65,CC1CCC(C(C)C)C(OC(=O)/C(=C/c2ccccc2)Cc2ccccc2)C1 (stereo not given)
12,284,Nc1ccc(O)c(C(=O)O)c1
13,148 to 150,COC(=O)C1(Br)CCC(Br)(C(=O)OC)CC1 (stereo not given)
14,141 to 146,O=C(C=Cc1ccc(F)cc1)C=Cc1ccc(F)cc1
15,127,COc1cc2c(cc1O)C(Cc1ccc(OC)c(OC)c1)N(C)CC2 (stereo not given)
16,-60,OCCCC1CCCCC1
17,102,Cc1nn(C)c(C)c1N
18,133 to 134,O=S(=O)(Cl)c1ccc(S(=O)(=O)N2CCCC2)cc1
19,231 to 232,C/C(=N\c1ccc(O)c(C)c1)c1c(O)c2ccccc2n(-c2ccccc2)c1=O
20,-40,CC(=O)OCCN(CCOC(C)=O)CCOC(C)=O

row,SMILES,melting point [°C]
1,O=Cc1ccc(CBr)cc1,99 to 100
2,CC1OC(OC2C=C3CCC4C(CCC5(C)C(c6ccc(=O)oc6)CCC45O)C3(C)CC2)C(O)C(O)C1O (stereo not given),221
3,C=C(C)C(=O)C(=CC(=O)O)OC,83
4,Nc1c(Cl)c(F)nc(OCC(=O)O)c1Cl,232
5,CSC#N,-5
6,Clc1ccc(Oc2ccccc2)cc1,-8
7,COC(=O)[C@]1(O)CC2=C(c3c1cc(OC)nc3Cl)N(C)CCC2,153
8,O=C1NC(=S)NC(=O)C1=NNc1ccccc1,290
9,CC(C)(C)C(=O)C(Oc1ccc(Cl)cc1)n1cncn1 (stereo not given),82.3
10,CC(=O)OC(c1ccccc1)C(Cl)(Cl)Cl (stereo not given),87.5
11,N#CC(F)(Cl)Cl,-110
12,FCC(F)(F)F,-101
13,Cn1sc(Cl)cc1=O,52
14,FC(F)=C(F)C(F)(F)F,-156
